Data on eight compounds can be found in patent publication US20030149005A1, “24-sulfur-substituted analogs of 1alpha, 25-dihydroxy vitamin D3” (priority 2001, published 2003).

Data set [1] is described as follows: Calcium excretion (hypercalcemia assay) in rats. The data set is classed as in vivo. As to conditions: for urinary calcium levels: concentration 20 fold greater than the concentration of calcitriol.
Procedure: Compound I(a) was tested for its effect on calcium excretion and weight gain in rats using a protocol described in Posner et al. J. Med. Chem. 41, 3008-3014, 1998.
The target of a further data set is T1, CYP27B1 (UniProt O15528).
T1 sequence (O15528 1-508): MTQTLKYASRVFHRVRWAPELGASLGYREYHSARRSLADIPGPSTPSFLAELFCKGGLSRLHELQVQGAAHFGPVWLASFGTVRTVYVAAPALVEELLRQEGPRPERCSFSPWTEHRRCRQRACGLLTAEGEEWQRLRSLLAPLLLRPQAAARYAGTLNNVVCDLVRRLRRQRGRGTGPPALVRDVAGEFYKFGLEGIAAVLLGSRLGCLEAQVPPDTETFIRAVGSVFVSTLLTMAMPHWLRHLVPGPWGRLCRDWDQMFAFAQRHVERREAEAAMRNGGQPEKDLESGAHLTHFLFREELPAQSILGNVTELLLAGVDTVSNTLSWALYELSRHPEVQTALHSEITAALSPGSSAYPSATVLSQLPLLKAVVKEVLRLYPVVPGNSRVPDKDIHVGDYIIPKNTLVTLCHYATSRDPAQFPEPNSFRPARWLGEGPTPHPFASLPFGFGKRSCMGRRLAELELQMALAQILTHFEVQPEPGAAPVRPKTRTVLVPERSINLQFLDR
The data set is described as follows: Assay of CYP1-alpha hydroxylase (transfected COS-1 cells). The data set is classed as cell-based. As to conditions: COS-1 cells transfected with CYP-1alpha hydroxylase cDNA, [3H-26,27]-25(OH)D3 substrate. Here is the method: Assay of CYP1-Alpha Hydroxylase (Using Transfected COS-1 Cells)
1. COS-1 cells (50-80% confluent)
2. FuGene 6 Transfection Reagent
3. PcDNA vector containing CYP-1alpha hydroxylase cDNA (1 μg/μl)
5. DMEM Medium (serum-free)
(ii) Transfection Cocktail Preparation (The Amount Depends on How Many Wells Transfected)
1. To a sterile tube, add serum-free medium (100 μl per well), Then add FuGene 6 Reagent (3 μl per well). Tap gently to mix. Pay attention to the order.
2. Add DNA solution (1 μg per well) to the prediluted FuGene 6 Reagent from step 2
3. Gently tap the tube to mix the contents. […] Incubate for 15 min at room temperature (no more than 45 min).
1. Trypsinize Cos-1 cells, centrifuge cell suspension, suspend cells pellet in DMEM medium+10% FCS.
2. Dilute the cells suspension to 750,000 cell/ml (75 cell/square),
1. Add 1.7 ml DMEM medium+10 O %FCS to each well of 6 well plate.
2. Transfer the correct volume of the cell suspension (200 μl/well) to the transfection cocktail. Mix them gently
3. Add 0.3 ml of the mixture to each well. Make sure that the same amount cells are added to each well. Swirl the wells to ensure even dispersal.
4. Incubate the cells for 24 hours at 37° C., 5% CO2 until enzyme activity assay.
(B) Enzyme Activity Assay
1. Wash cells once with PBS. Be careful, don't disturb the attached cells
2. Add 0.55 ml medium (DMEM+1%BSA) each well.
3. Add 0.025 ml medium containing test compounds
4. Incubate the cells for 10 minutes
6. Incubate the cells for 2 hour.
7. Add 1.5 ml Methanol to stop reaction
8. Add internal standard.
9. Transfer the medium to labeled tube.
10. Add 0.75 ml dichloromethane, vortex and keep in room temperature for 15 minutes.
11. Add 0.75 ml dichloromethane and 0.75 ml saturated KCl
12. Vortex and centrifuge
13. Remove upper phase and dry the lower phase in Speed-Vac
14. Add 110 μl mobile phase, vortex and centrifuge for 5 min.
15. Transfer 105 μl to the insert in HPLC vial.
16. HPLC analysis conditions:
Solvent: Hexane/isopropanol/methanol (91/7/2)
Detector: UV detector and radioactive detector.

A further data set deals with T2, CYP27A1 (Homo sapiens, UniProt Q02318).
T2 construct: fused on or other part: Possibly fused to adrenodoxin reductase and adrenodoxin, if the fusion enzyme of Dilworth et al. 1996 was used
T2 sequence (Q02318 34-531): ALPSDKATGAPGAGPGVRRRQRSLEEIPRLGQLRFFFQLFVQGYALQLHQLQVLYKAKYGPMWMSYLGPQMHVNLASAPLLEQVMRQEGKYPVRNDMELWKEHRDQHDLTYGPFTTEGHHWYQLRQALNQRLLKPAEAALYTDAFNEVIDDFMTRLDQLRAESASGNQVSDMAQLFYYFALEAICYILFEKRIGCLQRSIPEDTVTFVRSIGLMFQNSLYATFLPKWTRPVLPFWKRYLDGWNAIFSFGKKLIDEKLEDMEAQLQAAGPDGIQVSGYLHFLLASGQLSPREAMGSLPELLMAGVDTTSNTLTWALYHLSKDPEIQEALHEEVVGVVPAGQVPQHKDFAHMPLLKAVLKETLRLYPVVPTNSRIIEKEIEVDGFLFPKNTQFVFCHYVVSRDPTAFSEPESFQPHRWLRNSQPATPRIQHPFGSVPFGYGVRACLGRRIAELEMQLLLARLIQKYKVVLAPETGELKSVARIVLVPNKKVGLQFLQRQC
The data set is described as follows: CYP27A1 enzyme assay. The data set is classed as biochemical. An excerpt: Dilworth F J, Black S M, Guo Y D, Miller W L, Jones G. Construction of a P450c27 fusion enzyme: a useful tool for analysis of vitamin D3 25-hydroxylase (1996) Biochem J 320:267-271
Sawada N, Sakaki T, Ohta M, Inouye K. Metabolism of vitamin D (3) by human CYP27A1 (2000) Biochem Biophys Res Commun 273(3):977-84

Another data set has as its target T3, CYP24 (Homo sapiens, UniProt Q07973).
T3 construct: When the HPK1A-ras cells are 80-90% confluent, add 1 μL 10^−5 M 1,25(OH)2D3 to 1 mL medium; endogenous in cells; host or cells: HPK1A-ras cells induced with 10^-8 M 1,25(OH)2D3
T3 sequence (Q07973 36-514): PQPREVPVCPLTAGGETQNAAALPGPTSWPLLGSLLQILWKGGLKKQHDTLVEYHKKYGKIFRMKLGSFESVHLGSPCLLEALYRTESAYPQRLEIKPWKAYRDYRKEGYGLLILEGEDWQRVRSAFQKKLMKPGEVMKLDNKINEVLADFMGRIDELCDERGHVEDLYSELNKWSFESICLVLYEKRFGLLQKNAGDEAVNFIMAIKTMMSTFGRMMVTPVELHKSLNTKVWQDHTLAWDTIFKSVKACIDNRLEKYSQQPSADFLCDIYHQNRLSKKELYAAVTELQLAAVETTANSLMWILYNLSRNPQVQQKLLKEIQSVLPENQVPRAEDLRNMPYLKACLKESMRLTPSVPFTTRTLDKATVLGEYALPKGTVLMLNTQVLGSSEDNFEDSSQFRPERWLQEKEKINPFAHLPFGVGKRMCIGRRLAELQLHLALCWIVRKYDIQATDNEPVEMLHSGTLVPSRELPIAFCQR
The data set is described as follows: CYP24 enzyme assay (induced HPK1A-ras cells). The data set is classed as cell-based. As to conditions: [3H]-1,25(OH)2D3 substrate.

Procedure for CYP24: CYP24 Enzyme Assay (Induced KPK1A-ras Cells)
(i) Material and Reagents:
Saturated KCl: KCl 30 g, H2O400 ml
1. Induction of HPK1A-ras cells (The day before assay)
When the HPK1A-ras cells are 80-90% confluent, add 1 μL 10^−5 M 1,25(OH)2D3 to 1 mL medium in the plate (final concentration is 10^−8 M).
2. Preparation of cell suspension
After 18 to 20 hours induction, remove the medium and wash the cell twice with PBS. Then tripsinize the cells from plate, centrifuge (2,000 rpm, 5 min) and suspend cells pellet in DMEM medium+1%BSA.
Count the cells and adjust cells density to 250,000/150 μL, add 150 μL cell suspension to each well in 48-well plate. (including 3 well as no cell control, and 3 well cells without drug or inhibitor as control).
3. Add 25 μL ketoconazole (final concentration 10^−5 M, 10^−6 M, 10^−7 M, 10^−1 M) or drugs into each designated well. Keep the plate in 37° C. for 10 min.
4. Preparation of substrate
Take certain amount of DMEM+1%BSA medium (25*Well number+200) μL to a tube, add certain amount of 3H-1,25(OH)2D3 (well number+2) μL and certain amount of 100 mM DPPD (well number/5) μL and mix them by vortex.
Add 25 mL substrate to each well, incubate the plate at 37° C. for 3 hour.
Add 25 mL substrate to counting plate (2 well) as a total count.
6. Lipid extraction and counting
Add 500 μL methanol to each well to stop the reaction, transfer them to tube
Add 250 μL dichloromethane and vortex.
Add 250 μL dichloromethane and 250 μL saturated KCl, and vortex.
Centrifuge at 4000 rpm for 5 min.
Transfer 100 μL of aqueous phase (upper phase) to counting plastic counting plate. Add 600 μL of scintillation fluid to each well. Count the plate in scintillation counter.
7. Calculation enzyme activity
CPM of cell control after subtraction of CPM of NCC is as 100% enzyme activity.
Enzyme activity=(CPM in test compounds well —CPM in NCC well)/(CPM in Cell control−CPM in NCC well)*100%

By IC50 is commonly meant the concentration needed to halve the response being measured. Lower therefore signals greater potency. For `C=C1/C(=C\C=C2/CCC[C@]3(C)[C@@H]([C@H](C)CCS(=O)(=O)c4ccccc4)CC[C@@H]23)C[C@@H](O)C[C@@H]1O` [I(a)], the urinary calcium levels result in data set [1] was “did not show an increase in urinary calcium levels”; in data set [1] (listed as Ia), “did not increase the levels of calcium in the urine”. Moreover, the half-inhibitory concentration (IC50) on CYP27B1 and on CYP27A1 was more than 10000 nM each time.

With `C=C1/C(=C\C=C2/CCC[C@]3(C)[C@@H]([C@H](C)CCS(=O)(=O)c4ccc(Cl)cc4)CC[C@@H]23)C[C@@H](O)C[C@@H]1O` [I(e)], the results for the IC50 at CYP24 and on CYP27B1 were 94 nM and more than 1000 nM, respectively.

In the case of `C=C1/C(=C\C=C2/CCC[C@]3(C)[C@@H]([C@H](C)CCS(=O)(=O)c4ccc(C)cc4)CC[C@@H]23)C[C@@H](O)C[C@@H]1O` [I(g)], the IC50 was 212 nM against CYP24 and more than 1000 nM against CYP27B1.

For `C=C1/C(=C\C=C2/CCC[C@]3(C)C([C@H](C)CCSC(C)(C)C)=CC[C@@H]23)C[C@@H](O)C[C@@H]1O` [I(gg)], the IC50 is 467 nM at CYP24 and 8460 nM against CYP27B1.

Take `C=C1/C(=C\C=C2/CCC[C@]3(C)[C@@H]([C@H](C)CCS(=O)(=O)c4ccc(Cl)c(Cl)c4)CC[C@@H]23)C[C@@H](O)C[C@@H]1O` [I(i)]: the figures for the IC50 at CYP24 and against CYP27B1 were 92 nM and more than 1000 nM, respectively.

As for `C[C@H](CCS(=O)(=O)c1ccccc1)[C@H]1CC[C@H]2/C(=C/C=C3C[C@@H](O)C[C@H](O)C3)CCC[C@]12C` [I(u)], the calcemic activity entry in data set [1] (calcium excretion protocol) is recorded as “strongly non-calcemic”. Also, at CYP24, the half-inhibitory concentration (IC50) worked out at 160 nM.

For `C=C1/C(=C\C=C2/CCC[C@]3(C)[C@@H]([C@H](C)CCS(=O)(=O)C(C)(C)C)CC[C@@H]23)C[C@@H](O)C[C@@H]1O` [I(v)], the IC50 at CYP24 was 219 nM; against CYP27B1 it was more than 10000 nM.

For the compound `C=C1/C(=C\C=C2/CCC[C@]3(C)[C@@H]([C@H](C)CCS(=O)(=O)C(C)C)CC[C@@H]23)C[C@@H](O)C[C@@H]1O` [I(w)], the results for the IC50 at CYP24 and against CYP27B1 were 90 nM and 9200 nM, respectively.
